pIC50: −log10 of the molar value. ≈ marks a conversion by molar mass, not a printed value. Calls of active or inactive are those of the source. No cut-off for these calls is given here.
Assays:
[1] = Cytotoxicity against cat CRFK cells; format: cell-based, Felis catus
[2] = Cytotoxicity against human embryonic lung cells; format: cell-based
[3] = system: Human immunodeficiency virus; assay: Antiviral activity against HIV at subtoxic concentration; format: functional, organism-based
[4] = system: Mycobacterium tuberculosis; assay: Antimycobacterial activity against Mycobacterium tuberculosis H37Rv ATCC 27294 after 7 days by microplate alamar blue assay; format: functional; conditions: H37Rv ATCC 27294, 168 h
[5] = system: Mycobacterium tuberculosis; assay: Antimycobacterial activity against Mycobacterium tuberculosis H37Rv ATCC 27294 at […] after 7 days by microplate alamar blue assay; format: functional; conditions: H37Rv ATCC 27294, 168 h
[6] = system: HeLa; assay: Cytostatic activity against human HeLa cells assessed as inhibition of cell proliferation after 3 days by particle counter assay; format: functional, cell-based; conditions: 72 h
[7] = system: FM3A; assay: Cytostatic activity against mouse FM3A cells assessed as inhibition of cell proliferation after 2 days by particle counter assay; format: functional, cell-based; conditions: 48 h
[8] = system: CCRF-CEM; assay: Cytostatic activity against human CEM cells assessed as inhibition of cell proliferation after 3 days by particle counter assay; format: functional, cell-based; conditions: 72 h
[9] = system: L1210; assay: Cytostatic activity against mouse L1210 cells assessed as inhibition of cell proliferation after 2 days by particle counter assay; format: functional, cell-based; conditions: L1210, 48 h

| SMILES | Activity [3] | MIC [4] | pIC50 [6] | pIC50 [7] | pIC50 [8] | pIC50 [9] | other results |
| --- | --- | --- | --- | --- | --- | --- | --- |
| COC(=O)c1c(C)nc(NCc2ccccc2)nc1-c1ccccc1 |  |  |  |  |  |  | MCC [1]: 4 µg/mL; MCC [2]: 4 µg/mL |
| COC(=O)c1c(C)nc(Cl)nc1-c1ccccc1 | inactive |  |  |  |  |  |  |
| COc1c(N2C[C@@H]3CCCN[C@@H]3C2)c(F)cc2c(=O)c(C(=O)O)cn(C3CC3)c12 [MOXIFLOXACIN] |  | 0.47 µM (≈ 0.189 µg/mL) |  |  |  |  |  |
| CCOC(=O)c1c(C)nc(Cl)nc1-c1ccccc1 | inactive |  |  |  |  |  |  |
| CCOC(=O)c1c(C)nc(N2CCOCC2)nc1-c1ccccc1 | inactive | 125 µM (≈ 41 µg/mL) | ≤ 3.30 | < 3.30 | ≤ 3.30 | < 3.30 | inhibition at […] [5]: 96% |
| CCOC(=O)c1cnc(NCc2ccccc2)nc1C | inactive |  | 3.83 | 3.51 | 3.32 | 3.42 |  |
| NNC(=O)c1ccncc1 [ISONIAZID] |  | 0.12 µM (≈ 0.0165 µg/mL) |  |  |  |  |  |
| O=[N+]([O-])c1cn2c(n1)OC[C@@H](OCc1ccc(OC(F)(F)F)cc1)C2 [PRETOMANID] |  | 0.48 µM (≈ 0.172 µg/mL) |  |  |  |  |  |
| CCOC(=O)c1c(C)nc(NCCc2c[nH]c3ccccc23)nc1-c1ccccc1 | inactive |  | 4.64 | 4.47 | 4.51 | 4.55 |  |

Source: ChEMBL document CHEMBL1781930, “Facile transformation of Biginelli pyrimidin-2(1H)-ones to pyrimidines. In vitro evaluation as inhibitors of Mycobacterium tuberculosis and modulators of cytostatic activity” (Eur J Med Chem, 2011)
